Results taken from article PMC12217544 (Scientific Reports, 2025).
Converted amounts (≈) assume the structure as drawn.

Assays:
Vero E6 cells = settings: MTT assay, ref [76]; cited from earlier work
in vitro = settings: African green monkey, CC50, Vero E6 cells, crystal violet, 3 days
A549 cells = settings: MTT, ref [75]; cited from earlier work
SARS-CoV-2 = settings: SARS-CoV-2, Vero E6; ref [76]; cited from earlier work
[1] = tested on: A/Puerto Rico/8/1934 H1N1; settings: A/Puerto Rico/8/1934 H1N1, quantitative real-time PCR; ref [75]; cited from earlier work

Cc1ccc(C(C)C)c(O)c1 [Thymol]
CC50 (Vero E6 cells): 617 µM
CC50 (in vitro): 63.3 µg/mL (≈ 421 µM)
half-maximal cytotoxic concentration (A549 cells): 49.4 µg/mL
viral inhibition percentage (plaque reduction) (SARS-CoV-2): 96%
concentration that effectively reduced the viral titer [1]: 25 µg/mL
